Experimental data published in US20260374750A1, “LIGANDS SPECIFICALLY TARGETING VESICULAR GLUTAMATE TRANSPORTERS FOR SUPER-RESOLUTION IMAGING” (SORBONNE UNIVERSITÉ, priority 2021, published 2026).
Where two headings read alike, the source gives them in different places.

What was measured:
[1] = reference fluorophore, in ethanol; cited from earlier work
[2] = tested on: BON WT cells; test: Confocal fluorescence labeling of wild-type BON cells; type: cell-based, human; settings: FIG. 2
Procedure: (§1) The experiments are carried out with a BON cell line stably expressing VGLUT3 or a fluorescent VGLUT2 “VGLUT2-venus”. Wild non-transfected BON cells (“wild-type”, BON WT) are used as controls. The cells are cultured in F-12 Nutrient Mixture Ham medium (21765-029, Thermo Fisher Scientific) and Dulbecco's Modified Eagle's Medium High Glucose (DMEM HG, 31966021, Thermo Fisher Scientific; volume/volume), supplemented with 10% fetal calf serum (FCS, 12483012, Thermo Fisher Scientific) and 1% (volume/volume) of a mixture of streptomycin (10 mg/mL)/penicillin (10,000 U/mL) and […] an incubator at 37 °C under 5% CO2. For the transfected clones, the medium is enriched with 0.8 mg/mL Geneticin G418 sulfate (G418, 10131027, Thermo Fisher Scientific).
(§2) Two days before each experiment, after trypsinization of the cells from a culture flask, the cell suspension is seeded at 150,000 cells/well, in twelve-well plates on glass coverslips 19 mm in diameter. For observation, these coverslips are placed in a chamber allowing a hermetic fixation of the coverslip in the observation medium, Fluorobrite™ DMEM (A1896701, Thermo Fisher Scientific), a transparent medium.
(§3) Before each observation, the cells are incubated at 37 °C in the presence of fluorescent ligands, at previously determined concentrations. The effect of a pretreatment of BON cells with a specific inhibitor of VGLUTs, the substance LSP5-2157, is also performed to study the inhibitory effect of this substance on the labeling of BON cells with the fluorescent ligands of the invention.
(§4) The cells are observed in real time under an inverted confocal microscope, with a 63× objective in a room thermostated at 37 °C (Leica TCS SP5; cellular imaging platform of the Paris-Seine Institute of Biology). The studied fluorescent molecules emit in the blue, the cells are excited at 405 nm.
(§5) FIG. 2 illustrates the observation and quantification of the BON cells under a confocal microscope, and the inhibition of the fluorescent signal by a pretreatment of the cells with the specific VGLUT inhibitor, LSP5-2157. […] The images are presented in negative. D,H,L and P: Quantification of the treatment effect.

[3] = tested on: VGLUT3 (BON VGLUT3 cells); test: Confocal fluorescence labeling of BON cells expressing VGLUT3; type: cell-based, human (BON cells); settings: for fluorescence intensity in BON VGLUT3 cells relative to BON WT cells / labeling in cytoplasm of BON VGLUT3 cells: 1 h; for fluorescence intensity in BON VGLUT3 cells relative to BON WT cells / labeling in cytoplasm of BON VGLUT3 cells / intensity of labeling in BON VGLUT3 cells relative to BON WT cells: 37 °C; for effect of LSP5 pretreatment on fluorescence intensity in BON VGLUT3 cells: pretreatment with LSP5-2157; for intensity of labeling in BON VGLUT3 cells relative to BON WT cells: FIG. 3, 20 minutes
Procedure: A “BON” cell line describes cells derived from human pancreatic carcinoma; the article by Ramet L. et al., published in J Neurosci, 2017, 37 (15), 4181-4199, describes such cells and the use thereof for the characterization of VGLUT type transporters.
as §1
The cells are cultured in 25 cm^2 culture flasks. When the cells are at confluence, they are rinsed with sterile PBS 1× after aspiration of the medium, then incubated for five minutes at 37 °C with a solution of trypsin-EDTA (0.05% trypsin EDTA, 25300054, Thermo Fisher Scientific. The cell layer is then detached and the cells dissociated from each other. After addition of medium, the cell suspension is centrifuged for 5 minutes at 300 g, then the pellet is diluted 1:3 in order to be recultivated.
as §2, §3, §4, §5
Different acquisitions of cells are carried out using a confocal microscope. […] Statistical analysis: Kruskal-Wallis test followed by Dunn's post-hoc test, NS: non-significant, *p<0.01; ***p<0.0001.
FIG. 3 illustrates the observation and quantification of BON cells using a confocal microscope. Wild-type cells (BON WT) or VGLUT3-expressing cells (BON VGLUT3) are incubated with different fluorescent ligands referenced: L8, YL151, D04, C07, C05, B09, G02, F11. After treatment with fluorescent ligands for 20 minutes at 37 °C, a fluorescent labeling is visible in BON cells. The effect of the treatment is analyzed by quantifying the fluorescence intensity in each cell type. […] Statistical analysis: Mann Whitney test, NS: non-significant, **p=0.0042; ***p<0.0001.

[4] = Fluorimetry: absorption and emission spectra, Stokes shift, molar absorption coefficient, quantum efficiency; type: physicochemical; parameters: λmax abs / λmax em: unit not given here; key to Stokes shift: λmaxem − λmaxabs (emission peak minus absorption peak); settings: for Stokes shift: λmaxem-λmaxabs; for ε (molar absorption coefficient) / φ (quantum efficiency): coumarin-343 as reference
Procedure: The physicochemical properties of each ligand were determined thanks to fluorimetry. For each compound, a dilution range was performed and measurements were taken at 1 mM, 316 μM, 100 μM, 31.6 μM, 10 μM, 3.16 μM and 1μ. In 96-well fluorescence microplates, the absorbance and emission spectra of the ligands could be determined at each concentration thanks to a plate spectrophotometer (Tecan). The absorbance spectra are first measured for each compound so as to determine the maximum absorption wavelength (λmaxabs). The fluorescence, or emission, spectra are then determined after excitation of each compound at its λmaxabs, thus allowing obtaining the maximum fluorescence wavelength (λmaxem). Different parameters specific to each of the compounds were determined: • The Stokes shift: it corresponds to the difference between the peak of the absorption spectrum and the peak of the fluorescence spectrum, i.e.: λmaxem-λmaxabs • The molar absorption coefficient (ε): it reflects the capacity of the solutions to absorb light and is determined by the formula ε=A/(C.I)(A: optical density at λmaxabs, C: concentration of the compound, I: constant corresponding to the length of the optical path). ε is expressed in L·cm^−1·mol^−1. • The quantum efficiency (Φ): it represents the ratio of the number of photons emitted to the number of photons absorbed by the compound, i.e. the “probability” for an excited molecule to emit a photon. It takes a value between 0 and 1, 0 corresponding to a non-fluorescent molecule and 1 meaning that there is no de-excitation. Its value is determined thanks to the following formula where Abs: optical density at λmaxabs, AUC: area under the curve of the fluorescence spectrum, n: refractive index of the medium. In this formula, “m” refers to the studied molecule, and “r” to a reference fluorophore.
[formula] • of the fluorescence spectrum, n: refractive index of the medium). In this formula, “m” refers to the studied molecule, and “r” to a reference fluorophore.
The determination of ε and Φ requires the use of a reference fluorescent molecule for which these two parameters are known. Because of its coumarin-type fluorescent pattern, therefore close to those of the studied compounds, coumarin-343 (ε=44300 L·cm−1·mol−1 and Φ=0.63 in ethanol) was used as reference fluorophore. These two parameters were recalculated in the compound dilution medium (DMSO), and were used as a reference in the calculation of ε and Φ for each ligand.
In order to study the effect of a pH variation on the fluorescence intensity of the compounds, the measurements of the absorption and emission spectra were carried out in three different dilution media: • DMSO: pure dimethyl sulfoxide • Phosphate buffer pH 7.2 (0.2 M) • Phosphate buffer pH 5.5 (0.2 M)
FIG. 1 illustrates the absorption and emission spectra of the compound referenced L8, a carboxylic acid from the quinoline family. This is an example of the study carried out on each of the studied fluorophores. The graphic values determined thanks to these spectra are the λmaxabs, the λmaxem and the Stokes shift in each medium. […] The most diluted wells are preferred to see the emission peak of the compound.
The results which are obtained graphically thanks to the excitation and emission spectra and by calculation via the properties of coumarin 343 are grouped in Table 2 below.

[5] = pH 7 (phosphate buffer pH 7.2, 0.2 M)
[6] = phosphate buffer pH 5.5 (0.2 M)

With O=C(O)c1cc2cc3c4c(c2oc1=O)CCCN4CCC3 [coumarin-343] as the molecule, how does the “Φ (quantum efficiency)” value [1] read?
Its value is 0.63.

What about the “ε (molar absorption coefficient)” value [1] of the same molecule?
The value was 44300 L/cm/mol.

What does the source list for CCOC(=O)c1cc2cc(-n3cc(-c4ccc(-c5ccc(N)cc5)cc4)nn3)ccc2oc1=O [B09, Ethyl-6-(4-(4′-amino-[1,1′-biphenyl]-4-yl)-1H-1,2,3-triazol-1-yl)-2-oxo-2H-chromene-3-carboxylate]?
labeling in cytoplasm of BON WT cells [2]: a weak and homogeneous labeling is detected; fluorescence intensity in BON VGLUT3 cells relative to BON WT cells ([3]; FIG. 2): significantly increases; labeling in cytoplasm of BON VGLUT3 cells ([3]; FIG. 2): a punctiform labeling appears; effect of LSP5 pretreatment on fluorescence intensity in BON VGLUT3 cells ([3]; FIG. 2): decreases the fluorescence intensity; intensity of labeling in BON VGLUT3 cells relative to BON WT cells [3]: increases significantly; λmax abs ([4]; DMSO): 320; λmax em ([4]; DMSO): 407; Stokes shift ([4]; DMSO): 87; ε (molar absorption coefficient) ([4]; DMSO): 48740.9 L/cm/mol; φ (quantum efficiency) ([4]; DMSO): 0.1; Stokes shift ([4]; pH 5.5): 47; λmax abs [4, 5]: 365; λmax em [4, 5]: 412; Stokes shift ([4]; pH 7): 47; λmax abs [4, 6]: 365; λmax em [4, 6]: 412

Which “intensity of labeling in BON VGLUT3 cells relative to BON WT cells” value [3] does the source give for CCOC(=O)c1cc(C(=O)OCC)c2cc(-c3ccc(-c4ccccc4)cc3)ccc2n1 [YL151, Diethyl 6-(biphenyl-4-yl) quinoline-2,4-dicarboxylate] here?
The value was “increases significantly”.

And the λmax abs ([4]; DMSO)?
The λmax abs was 360.

And the λmax em ([4]; DMSO)?
Its λmax em is 420-570.

And the Stokes shift ([4]; DMSO)?
Its Stokes shift is 60.

What about the “ε (molar absorption coefficient)” value ([4]; DMSO) of the same molecule?
The value was 25747.1 L/cm/mol.

What about the “φ (quantum efficiency)” value ([4]; DMSO) of the same molecule?
Its value is 0.11.

What about the Stokes shift ([4]; pH 5.5) of the same molecule?
The Stokes shift was 85.

What about the λmax abs [4, 5] of the same molecule?
Its λmax abs is 365.

What about the λmax em [4, 5] of the same molecule?
Its λmax em is 440.

What about the Stokes shift ([4]; pH 7) of the same molecule?
The Stokes shift was 75.

And the λmax abs [4, 6]?
The λmax abs was 365.

What about the λmax em [4, 6] of the same molecule?
Its λmax em is 450.

What does the source list for Nc1cc(S(=O)(=O)O)cc2cc(S(=O)(=O)O)c(/N=N/c3ccc(-c4ccc(/N=N/c5c(S(=O)(=O)O)cc6cc(S(=O)(=O)O)cc(N)c6c5O)cc4)cc3)c(O)c12 [LSP5-2157, reference compound]?
inhibition of fluorescent labeling by pre-incubation with VGLUT inhibitor ([3]; FIG. 2, against labeling by fluorescent ligands): significantly reduces the fluorescent labeling; displacement of ligand binding in cell culture ([3]; reference VGLUT inhibitor): capable of displacing the ligand binding in cell culture

For CCOC(=O)c1cc2cc(-n3cc(-c4ccc(-c5ccc(N)cc5)cc4)nn3)c(OC)cc2oc1=O [C07, Ethyl 6-(4-(4′-amino-[1,1′-biphenyl]-4-yl)-1H-1,2,3-triazol-1-yl)-7-methoxy-2-oxo-2H-chromene-3-carboxylate], which “labeling in cytoplasm of BON WT cells” value [2] is on record?
Its value is “a weak and homogeneous labeling is detected”.

And the “fluorescence intensity in BON VGLUT3 cells relative to BON WT cells” value ([3]; FIG. 2)?
The value was “significantly increases”.

And the “labeling in cytoplasm of BON VGLUT3 cells” value ([3]; FIG. 2)?
Its value is “a punctiform labeling appears”.

What about the “effect of LSP5 pretreatment on fluorescence intensity in BON VGLUT3 cells” value ([3]; FIG. 2) of the same molecule?
Its value is “do not significantly differ”.

And the “intensity of labeling in BON VGLUT3 cells relative to BON WT cells” value [3]?
Its value is “increases significantly”.

And the λmax abs ([4]; DMSO)?
The λmax abs was 335.

And the λmax em ([4]; DMSO)?
Its λmax em is 410-430.

What about the Stokes shift ([4]; DMSO) of the same molecule?
The Stokes shift was 75.

What about the “ε (molar absorption coefficient)” value ([4]; DMSO) of the same molecule?
The value was 64913.8 L/cm/mol.

And the “φ (quantum efficiency)” value ([4]; DMSO)?
The value was 0.05.

And the Stokes shift ([4]; pH 5.5)?
The Stokes shift was 50.

What about the λmax abs [4, 5] of the same molecule?
Its λmax abs is 365.

What about the λmax em [4, 5] of the same molecule?
The λmax em was 400.

What about the Stokes shift ([4]; pH 7) of the same molecule?
Its Stokes shift is 35.

And the λmax abs [4, 6]?
The λmax abs was 330.

And the λmax em [4, 6]?
Its λmax em is 380.

Which “block of binding of novel ligands by reference inhibitor” value [3] does the source give for Cc1cc(-c2ccc(/N=N/c3c(S(=O)(=O)O)cc4cc(S(=O)(=O)O)cc(N)c4c3O)c(C)c2)ccc1/N=N/c1c(S(=O)(=O)O)cc2cc(S(=O)(=O)O)cc(N)c2c1O [trypan blue, reference compound] here?
The value was “block the binding of novel ligands”.
